Test results from PubChem BioAssay (NCI).
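Step 1: Grow cells in 96-well plates. Step 2: Expose to compound for 48 hours at 5 concentrations. Step 3: Interpolate endpoints linearly; if unreached, use highest concentration. Definition used: TGI = concentration required for complete inhibition of growth.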

Experiments:
Assay in all cases: growth of human tumour cells (NCI), 48 h
[1] = tested on: HL-60(TB) leukemia
[2] = tested on: OVCAR-4 ovarian
[3] = tested on: COLO 205 colon
[4] = tested on: A549 NSCLC
[5] = tested on: HOP-62 NSCLC
[6] = tested on: CCRF-CEM leukemia
[7] = tested on: RPMI-8226 leukemia
[8] = tested on: MALME-3M melanoma
[9] = tested on: SK-MEL-28 melanoma
[10] = tested on: HCT-116 colon
[11] = tested on: K-562 leukemia
[12] = tested on: A498 renal
[13] = tested on: SF-539 CNS
[14] = tested on: SNB-75 CNS
[15] = tested on: SF-268 CNS
[16] = tested on: HCC-2998 colon
[17] = tested on: OVCAR-5 ovarian
[18] = tested on: NCI-H23 lung
[19] = tested on: SNB-19 CNS
[20] = tested on: SK-OV-3 ovarian
[21] = tested on: U251 CNS
[22] = tested on: SN12C renal
[23] = tested on: PC-3 prostate
[24] = tested on: EKVX NSCLC
[25] = tested on: KM12 colon
[26] = tested on: SW-620 colon
[27] = tested on: HCT-15 colon
[28] = tested on: MCF7 breast
[29] = tested on: TK-10 renal
[30] = tested on: NCI/ADR-RES ovarian
[31] = tested on: HT29 colon
[32] = tested on: HS 578T breast
[33] = tested on: T-47D breast
[34] = tested on: MDA-MB-231 breast
[35] = tested on: IGROV1 ovarian
[36] = tested on: MDA-MB-435
[37] = tested on: CAKI-1 renal
[38] = tested on: SK-MEL-5 melanoma
[39] = tested on: UO-31 renal
[40] = tested on: MDA-N
[41] = tested on: UACC-62 melanoma
[42] = tested on: MOLT-4 leukemia
[43] = tested on: ACHN renal
[44] = tested on: LOX IMVI melanoma
[45] = tested on: 786-0 renal
[46] = tested on: SK-MEL-2 melanoma
[47] = tested on: OVCAR-8 ovarian
[48] = tested on: DU-145 prostate
[49] = tested on: SR leukemia
[50] = tested on: SF-295 CNS
[51] = tested on: NCI-H226 lung
[52] = tested on: NCI-H460 lung
[53] = tested on: UACC-257 melanoma
[54] = tested on: M14 melanoma
[55] = tested on: NCI-H522 lung
[56] = tested on: RXF 393 renal
[57] = tested on: OVCAR-3 ovarian
[58] = tested on: HOP-92 NSCLC

Molecule `O=C(/C=C/c1ccsc1)c1ccc(Cl)cc1` has a TGI [1] of 49.8 µM, a TGI [2] of over 100 µM and a TGI [3] of over 100 µM. For the same molecule, the TGI [4] was over 100 µM, the TGI [5] was over 100 µM and the TGI [6] was 53.3 µM. For the same molecule, the TGI [7] was 64.8 µM, the TGI [8] was 95.3 µM and the TGI [9] was over 100 µM. It also gave a TGI [10] of over 100 µM, a TGI [11] of 95.7 µM and a TGI [12] of over 100 µM. The TGI [13] was over 100 µM, the TGI [14] was over 100 µM and the TGI [15] was over 100 µM. The TGI [16] was over 100 µM, the TGI [17] was over 100 µM and the TGI [18] was over 100 µM. For the same molecule, the TGI [19] was over 100 µM, the TGI [20] was over 100 µM and the TGI [21] was over 100 µM. For the same molecule, the TGI [22] was over 100 µM, the TGI [23] was over 100 µM and the TGI [24] was over 100 µM. For the same molecule, the TGI [25] was over 100 µM, the TGI [26] was over 100 µM and the TGI [27] was over 100 µM. For the same molecule, the TGI [28] was over 100 µM, the TGI [29] was over 100 µM and the TGI [30] was over 100 µM. For the same molecule, the TGI [31] was over 100 µM, the TGI [32] was over 100 µM and the TGI [33] was over 100 µM. The TGI [34] was over 100 µM, the TGI [35] was over 100 µM and the TGI [36] was over 100 µM. It also gave a TGI [37] of over 100 µM, a TGI [38] of over 100 µM and a TGI [39] of over 100 µM. It also gave a TGI [40] of over 100 µM, a TGI [41] of over 100 µM and a TGI [42] of 43.7 µM. For the same molecule, the TGI [43] was over 100 µM, the TGI [44] was 47.8 µM and the TGI [45] was over 100 µM. It also gave a TGI [46] of over 100 µM, a TGI [47] of over 100 µM and a TGI [48] of over 100 µM. It also gave a TGI [49] of 43.7 µM, a TGI [50] of over 100 µM and a TGI [51] of over 100 µM. It also gave a TGI [52] of over 100 µM, a TGI [53] of over 100 µM and a TGI [54] of over 100 µM.
For `CC(=O)CC1(OC(=O)C2C(C=C(C)C)C2(C)C)C(=O)Nc2ccccc21` (stereo unspecified), the TGI [1] was over 100 µM, the TGI [2] was over 100 µM and the TGI [3] was over 100 µM. The TGI [4] was over 100 µM, the TGI [5] was over 100 µM and the TGI [6] was over 100 µM. The TGI [7] was over 100 µM, the TGI [8] was over 100 µM and the TGI [9] was over 100 µM. The TGI [10] was over 100 µM, the TGI [11] was over 100 µM and the TGI [12] was over 100 µM. It also gave a TGI [13] of over 100 µM, a TGI [14] of over 100 µM and a TGI [15] of over 100 µM. It also gave a TGI [16] of over 100 µM, a TGI [17] of over 100 µM and a TGI [18] of over 100 µM. It also gave a TGI [19] of over 100 µM, a TGI [55] of over 100 µM and a TGI [20] of over 100 µM. It also gave a TGI [21] of over 100 µM, a TGI [22] of over 100 µM and a TGI [23] of over 100 µM. It also gave a TGI [24] of over 100 µM, a TGI [25] of over 100 µM and a TGI [26] of over 100 µM. The TGI [27] was over 100 µM, the TGI [29] was over 100 µM and the TGI [56] was over 100 µM. For the same molecule, the TGI [30] was over 100 µM, the TGI [31] was over 100 µM and the TGI [32] was over 100 µM. It also gave a TGI [33] of over 100 µM, a TGI [34] of over 100 µM and a TGI [35] of over 100 µM. It also gave a TGI [36] of over 100 µM, a TGI [37] of over 100 µM and a TGI [38] of over 100 µM. It also gave a TGI [39] of over 100 µM, a TGI [40] of over 100 µM and a TGI [57] of over 100 µM. The TGI [41] was over 100 µM, the TGI [42] was over 100 µM and the TGI [43] was over 100 µM. The TGI [44] was over 100 µM, the TGI [45] was over 100 µM and the TGI [46] was over 100 µM. For the same molecule, the TGI [47] was over 100 µM, the TGI [48] was over 100 µM and the TGI [49] was over 100 µM. The TGI [50] was over 100 µM, the TGI [51] was over 100 µM and the TGI [52] was over 100 µM. For the same molecule, the TGI [53] was over 100 µM and the TGI [54] was over 100 µM.
Molecule `COP(C)(=O)C1=CCN(C(=O)OCC[Si](C)(C)C)CC1` (stereo unspecified) has a TGI [2] of over 100 µM, a TGI [3] of over 100 µM and a TGI [4] of over 100 µM. For the same molecule, the TGI [5] was over 100 µM, the TGI [6] was over 100 µM and the TGI [7] was over 100 µM. For the same molecule, the TGI [8] was over 100 µM, the TGI [9] was over 100 µM and the TGI [12] was over 100 µM. It also gave a TGI [14] of over 100 µM, a TGI [15] of over 100 µM and a TGI [16] of over 100 µM. The TGI [17] was over 100 µM, the TGI [18] was over 100 µM and the TGI [19] was over 100 µM. The TGI [55] was over 100 µM, the TGI [20] was over 100 µM and the TGI [21] was over 100 µM. The TGI [23] was over 100 µM, the TGI [24] was over 100 µM and the TGI [25] was over 100 µM. For the same molecule, the TGI [26] was over 100 µM, the TGI [27] was over 100 µM and the TGI [28] was over 100 µM. It also gave a TGI [29] of over 100 µM, a TGI [56] of over 100 µM and a TGI [30] of over 100 µM. It also gave a TGI [31] of over 100 µM, a TGI [32] of over 100 µM and a TGI [33] of over 100 µM. For the same molecule, the TGI [34] was over 100 µM, the TGI [35] was over 100 µM and the TGI [36] was over 100 µM. The TGI [37] was over 100 µM, the TGI [38] was over 100 µM and the TGI [39] was over 100 µM. It also gave a TGI [40] of over 100 µM, a TGI [57] of over 100 µM and a TGI [41] of over 100 µM. It also gave a TGI [43] of over 100 µM, a TGI [44] of over 100 µM and a TGI [58] of over 100 µM. The TGI [45] was over 100 µM, the TGI [46] was over 100 µM and the TGI [47] was over 100 µM. The TGI [48] was over 100 µM, the TGI [50] was over 100 µM and the TGI [51] was over 100 µM. For the same molecule, the TGI [52] was over 100 µM, the TGI [53] was over 100 µM and the TGI [54] was over 100 µM.
